Assay results from PubChem BioAssay (NCI).
“And” between values parts separate entries of the source, which are not always exact repeats. Identical values can stand only once.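 1) Cells in 96-well plates. 2) Compound, 48 h, 5 concentrations. 3) Linear interpolation between surrounding doses. 4) Unreached endpoint = highest concentration. The concentration for 50% growth inhibition is given as GI50. The concentration for full growth arrest is given as TGI.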

How the values were obtained:
Experiment in all cases: NCI-60 cell line screen, 48 h
[1] = tested on: MCF7 breast
[2] = tested on: NCI-H23 lung
[3] = tested on: SF-268 CNS
[4] = tested on: OVCAR-3 ovarian
[5] = tested on: UACC-257 melanoma
[6] = tested on: MOLT-4 leukemia
[7] = tested on: HT29 colon
[8] = tested on: PC-3 prostate
[9] = tested on: UACC-62 melanoma
[10] = tested on: SR leukemia

SMILES: Nc1nc2c(ncn2C2OC(CO)C(O)C2O)c(=O)[nH]1 (configuration not stated)
- GI50 [1]: > 100 µM
- TGI [1]: > 100 µM and 223 µM
- TGI [2]: 175 µM
- GI50 [3]: > 100 µM
- TGI [3]: > 100 µM and 281 µM
- TGI [4]: 235 µM
- GI50 [5]: > 100 µM and 20.8 µM
- TGI [5]: > 100 µM and 282 µM
- GI50 [6]: 35.7 µM
- TGI [6]: > 100 µM and 121 µM
- GI50 [7]: > 100 µM
- TGI [7]: > 100 µM and 196 µM
- GI50 [8]: > 100 µM
- TGI [8]: > 100 µM
- GI50 [9]: > 100 µM
- TGI [9]: > 100 µM and 175 µM
- GI50 [10]: > 100 µM
- TGI [10]: > 100 µM

SMILES: CC(C)OC(=O)c1cc(NC(=S)OC(C)C)ccc1Cl
- TGI [1]: > 53 µM
- TGI [2]: 68.1 µM
- TGI [3]: > 59.6 µM
- TGI [4]: 48.3 µM
- TGI [5]: 50.9 µM
- TGI [6]: > 79.2 µM
- TGI [7]: 38.6 µM
- TGI [8]: 50.9 µM
- TGI [9]: 31.2 µM
- TGI [10]: > 100 µM

SMILES: NCC[PH+](c1ccccc1)c1ccccc1.NCC[PH+](c1ccccc1)c1ccccc1.[Cl-].[Pt+4]
- GI50 [1]: > 100 µM
- TGI [1]: > 100 µM
- GI50 [2]: > 100 µM
- TGI [2]: > 100 µM
- GI50 [3]: > 100 µM
- TGI [3]: > 100 µM
- GI50 [4]: > 100 µM
- TGI [4]: > 100 µM
- GI50 [5]: > 100 µM
- TGI [5]: > 100 µM
- GI50 [6]: > 51.3 µM
- TGI [6]: > 100 µM
- GI50 [7]: 85 µM
- TGI [7]: > 100 µM
- GI50 [8]: > 100 µM
- TGI [8]: > 100 µM
- GI50 [9]: > 86.5 µM
- TGI [9]: > 100 µM
- GI50 [10]: 29.7 µM
- TGI [10]: > 100 µM

SMILES: Cn1cc(C2=C(c3cccc([N+](=O)[O-])c3)C(=O)NC2=O)c2ccccc21
- GI50 [1]: 3.17 µM
- TGI [1]: > 25 µM
- GI50 [2]: 6.66 µM
- TGI [2]: > 25 µM
- GI50 [3]: 11.8 µM
- TGI [3]: > 25 µM
- GI50 [4]: 5.33 µM
- TGI [4]: > 22 µM
- GI50 [5]: 9.99 µM
- TGI [5]: > 22.7 µM
- GI50 [6]: 7.18 µM
- TGI [6]: > 22.8 µM
- GI50 [7]: 7.29 µM
- TGI [7]: > 25 µM
- GI50 [8]: 5.61 µM
- TGI [8]: > 25 µM
- GI50 [9]: 6.58 µM
- TGI [9]: 18.1 µM
- GI50 [10]: 7 µM
- TGI [10]: > 25 µM

SMILES: O=C(NCCNC1=CC(=O)c2nc3ccccc3c3ccnc1c23)c1cnccn1
- GI50 [1]: 21.4 µM
- TGI [1]: > 100 µM
- GI50 [2]: 46.4 µM
- TGI [2]: > 100 µM
- GI50 [3]: 31 µM
- TGI [3]: > 100 µM
- GI50 [4]: 2.42 µM
- TGI [4]: 19.1 µM
- GI50 [5]: 49.3 µM
- TGI [5]: > 100 µM
- GI50 [6]: 35.7 µM
- TGI [6]: > 100 µM
- GI50 [7]: 33 µM
- TGI [7]: > 100 µM
- GI50 [8]: 13.1 µM
- TGI [8]: > 100 µM
- GI50 [9]: 73.7 µM
- TGI [9]: > 100 µM
- GI50 [10]: 9.26 µM
- TGI [10]: > 100 µM

SMILES: CN(Cc1cnc2nc(N)nc(N)c2n1)c1c(Cl)cc(C(=O)NC(CCC(=O)O)C(=O)O)cc1Br (configuration not stated)
- GI50 [1]: < 0.01 µM
- TGI [1]: > 100 µM
- GI50 [2]: 0.016 µM
- TGI [2]: > 100 µM
- GI50 [3]: < 0.01 µM
- TGI [3]: > 100 µM
- GI50 [4]: < 0.01 µM
- TGI [4]: > 100 µM
- TGI [5]: > 100 µM
- GI50 [6]: < 0.01 µM
- TGI [6]: > 100 µM
- GI50 [7]: < 0.01 µM
- TGI [7]: > 100 µM
- GI50 [8]: < 0.01 µM
- TGI [8]: > 80.1 µM
- GI50 [9]: < 0.0118 µM
- TGI [9]: > 100 µM
- GI50 [10]: < 0.01 µM
- TGI [10]: > 100 µM

SMILES: O=C([CH-]C(=O)c1ccccc1)c1ccccc1.[CH2-]C.[CH2-]C.[Tl+3]
- GI50 [1]: 7.73 µM
- TGI [1]: > 100 µM
- GI50 [2]: 32.3 µM
- TGI [2]: > 100 µM
- GI50 [3]: 18.4 µM
- TGI [3]: > 100 µM
- GI50 [4]: 28 µM
- TGI [4]: > 100 µM
- GI50 [5]: 45.6 µM
- TGI [5]: > 100 µM
- GI50 [6]: 6.63 µM
- TGI [6]: 41.8 µM
- GI50 [7]: 26 µM
- TGI [7]: > 100 µM
- GI50 [8]: 32 µM
- TGI [8]: > 100 µM
- GI50 [9]: 20.8 µM
- TGI [9]: 87.6 µM
- GI50 [10]: 6.35 µM
- TGI [10]: 50.1 µM

SMILES: COc1ccc(-c2nc3sccn3c2/C=C/C(=O)c2cc(OC)c(OC)c(OC)c2)cc1
- GI50 [1]: 1.85 µM
- TGI [1]: > 100 µM
- GI50 [2]: 2.49 µM
- TGI [2]: > 28.7 µM
- GI50 [3]: 2.76 µM
- TGI [3]: > 100 µM
- GI50 [4]: 2.34 µM
- TGI [4]: 7.37 µM
- GI50 [5]: 15.2 µM
- TGI [5]: 78.7 µM
- GI50 [6]: 2.24 µM
- TGI [6]: 23.7 µM
- GI50 [7]: 3.22 µM
- TGI [7]: 11.8 µM
- GI50 [8]: 2.97 µM
- TGI [8]: > 38.7 µM
- GI50 [9]: 2.08 µM
- TGI [9]: 9.15 µM
- GI50 [10]: 2.41 µM
- TGI [10]: > 28.2 µM

SMILES: CCCCCCC1CCCCN1C(c1ccccc1)C(O)c1ccccc1 (configuration not stated)
- GI50 [1]: 3.78 µM
- TGI [1]: 14.8 µM
- GI50 [2]: 6.33 µM
- TGI [2]: 20.9 µM
- GI50 [3]: 10.9 µM
- TGI [3]: 23.1 µM
- GI50 [4]: 8.49 µM
- TGI [4]: 20.8 µM
- GI50 [5]: 4.79 µM
- TGI [5]: 18.1 µM
- GI50 [6]: 4.96 µM
- TGI [6]: 19.4 µM
- GI50 [7]: 3.09 µM
- TGI [7]: 12.2 µM
- GI50 [8]: 6.93 µM
- TGI [8]: 20.6 µM
- GI50 [9]: 11.7 µM
- TGI [9]: 24.8 µM
- GI50 [10]: 2.94 µM
- TGI [10]: 8.54 µM

SMILES: COc1cc(C(=O)/C=C/c2c(C)n([O-])c3ccc(Cl)cc3[n+]2=O)cc(OC)c1OC
- GI50 [1]: 3.37 µM
- TGI [1]: > 100 µM
- GI50 [2]: 7.59 µM
- TGI [2]: 68.6 µM
- GI50 [3]: 3.53 µM
- TGI [3]: 98.7 µM
- GI50 [4]: 1.76 µM
- TGI [4]: 7.98 µM
- GI50 [5]: 19.5 µM
- TGI [5]: > 100 µM
- GI50 [6]: 3.06 µM
- TGI [6]: 27.9 µM
- GI50 [7]: 3.94 µM
- TGI [7]: > 100 µM
- GI50 [8]: 26.9 µM
- TGI [8]: > 100 µM
- GI50 [9]: 3.87 µM
- TGI [9]: 23.1 µM
- GI50 [10]: 1.86 µM
- TGI [10]: 5.65 µM

SMILES: COC1CCC(OS(C)(=O)=O)C(C)O1 (configuration not stated)
- TGI [1]: > 10 µM
- TGI [2]: > 10 µM
- TGI [3]: > 10 µM
- TGI [4]: > 10 µM
- TGI [5]: > 10 µM
- TGI [6]: > 10 µM
- TGI [7]: > 10 µM
- TGI [8]: > 10 µM
- TGI [9]: > 10 µM
- TGI [10]: > 10 µM

SMILES: COc1cc(C(=O)Nc2ccc(-c3nc4ccccc4[nH]3)cc2)cc(OC)c1OC
- GI50 [1]: 11.2 µM
- TGI [1]: 30.6 µM
- GI50 [2]: 11.9 µM
- TGI [2]: 34.6 µM
- GI50 [3]: 14.2 µM
- TGI [3]: 37.4 µM
- GI50 [4]: 12.4 µM
- TGI [4]: 27.9 µM
- GI50 [5]: 17.8 µM
- TGI [5]: 38.9 µM
- GI50 [6]: 9.82 µM
- TGI [6]: 45.4 µM
- GI50 [7]: 5.95 µM
- TGI [7]: 19.6 µM
- GI50 [8]: 13.6 µM
- TGI [8]: 34 µM
- GI50 [9]: 9.89 µM
- TGI [9]: 24.4 µM
- GI50 [10]: 6.92 µM
- TGI [10]: 40.9 µM

SMILES: CCOC1OC(C)(C=C(C#N)C#N)CCC1C (configuration not stated)
- TGI [1]: > 100 µM
- TGI [2]: > 100 µM
- TGI [3]: > 100 µM
- TGI [4]: > 71.6 µM
- TGI [5]: > 100 µM
- TGI [6]: > 100 µM
- TGI [7]: > 93.9 µM
- TGI [8]: > 100 µM
- TGI [9]: > 100 µM
- TGI [10]: > 76.2 µM
